Assay results from patent US8992933B2, “Methods for activating T cells and modulating an immune response” (New York University, priority 2011, dated 2015).

Key:
Format in all cases: cell-based, human
Klf2 = Klf2 mRNA by RT-qPCR in TM cells
Description: Peripheral Blood Mononuclear Cells (PBMCs) from healthy individuals (New York Blood Center, New York, N.Y.) were prepared using Ficoll-paque plus (GE Amersham, Uppsala, Sweden). Whole blood samples from rheumatoid arthritis patients were purchased from Bioreclamation (New York, N.Y.) and were processed similar to healthy donor blood. All healthy donor and patient samples were consented prior to purchase, were none-identifiable and approved by institutional human subjects board. CD4^+ T cells were isolated using Dynal CD4 Positive Isolation Kit (Invitrogen, Carlsbad, Calif.) directly from purified PBMCs and were >99% pure. […] TM cells were activated either by anti-CD3 and anti-CD28 (aCD3/aCD28) coated beads (1:4 beads:cells ratio) for 18-24 hours, or by Phorbol 12-myristate 13-acetate (PMA) and ionomycin for 4 hours and further FACS sorted based on CCR6 and IL-17 expression into CCR6^− IL-17^−, CCR6^+IL-17^+, or CCR6^+IL-17^− subsets (as determined by secretion assay labeling, see below). […]
Purified T cells (1×10^5) were snap frozen in liquid nitrogen for total RNA isolation. […] The extracted RNA was then reverse transcribed into cDNA and quantified using Taqman Cell to CT kit (Applied Biosystems, Carlsbad, Calif.). […] Data was acquired and analyzed on ABI 7500 sequence detection system. […]

Rorc and Foxp3 = Rorc and Foxp3 mRNA by RT-qPCR in CCR6+/- cells; conditions: IL-7 medium 7 days, then inhibitor for 2 days
Description: Peripheral Blood Mononuclear Cells (PBMCs) from healthy individuals (New York Blood Center, New York, N.Y.) were prepared using Ficoll-paque plus (GE Amersham, Uppsala, Sweden). Whole blood samples from rheumatoid arthritis patients were purchased from Bioreclamation (New York, N.Y.) and were processed similar to healthy donor blood. All healthy donor and patient samples were consented prior to purchase, were none-identifiable and approved by institutional human subjects board. […] Sorted cells (>99% pure) were cultured in serum-free Xvivo-15 medium (Lonza, Wakersville, Md.) at 37° C. and 5% CO2 for 6-7 days prior to restimulation with PMA and ionomycin (see below). […]). […] In the experiments using PI-3K signaling inhibitors, cells were treated with PI-3K specific inhibitor, LY294002 (EMD, Gibbstown, N.J.), or Akt specific inhibitor, AKTi-1/2 (EMD), for 2 days before PMA and Ionomycin restimulation. Purified T cells (1×10^5) were snap frozen in liquid nitrogen for total RNA isolation. […] The extracted RNA was then reverse transcribed into cDNA and quantified using Taqman Cell to CT kit (Applied Biosystems, Carlsbad, Calif.). […] Data was acquired and analyzed on ABI 7500 sequence detection system. Quantitative real-time PCR data was analyzed by normalizing Ct values of genes of interest to the Ct values of the housekeeping gene b-Actin.

TM cells = assay: Cell viability under PI-3K/Akt inhibitor treatment; conditions: 1-10 μg/mL
Description: (§1) Cells were stained as previously described (Oswald-Richter, et al., PLoS Pathogens 2007; 3: e58). For intracellular staining, T cell cultures were stimulated for 5 hours at 37° C. with PMA and Ionomycin and Golgistop (BD Biosciences). Stimulated cells were washed with PBS and stained with Fixable Viability Dye eFluor450 (eBioscience) to gate on live cells. Cells were then fixed and permeabilized by commercially available Foxp3 intracellular staining kit (eBioscience) or cytofix/cytoperm kit (BD Biosciences) as per manufacturer's protocol. Antibodies used for surface and intracellular staining included: CD45RO-[…]3), PE Cy7 or A700; […] IL-17A (IL-17)-Pacific Blue (Clone BL168), FITC or Percp Cy5.5; […]) or APC (eBioscience); […] FOXO1 rabbit monoclonal antibody; phospho-AKT ([…])-Alexa Fluor 488; Rabbit IgG isotype control-Alexa Fluor 488 (Cell Signaling, Danvers, Mass.); and CCR6-biotin (BD Biosciences). Secondary antibodies used were: Streptavidin-APC or […]5.5 (BD Biosciences), Goat anti mouse-APC (BD Biosciences), anti rabbit-Alexa 647 (Molecular Probes). All data were acquired on LSRII instrument (BD Biosciences) using FACSDiva software. Data analyses were done using Flowjo software (Treestar Inc, Ashland, Oreg.). For phospho-Akt staining, Jurkat cells were fixed with BD Cytofix buffer (BD Biosciences) pre-warmed to 37° C. for 10 minutes. […]

Akt phosphorylation = assay: Intracellular phospho-Akt (Ser473) staining
Description: as §1

CCR6+ TM cells [1] = assay: PI-3K/Akt inhibitor treatment of IL-7-cultured CCR6+ TM cells, cytokine production after PMA and ionomycin
Description: Peripheral Blood Mononuclear Cells (PBMCs) from healthy individuals (New York Blood Center, New York, N.Y.) were prepared using Ficoll-paque plus (GE Amersham, Uppsala, Sweden). […] All healthy donor and patient samples were consented prior to purchase, were none-identifiable and approved by institutional human subjects board. CD4^+ T cells were isolated using Dynal CD4 Positive Isolation Kit (Invitrogen, Carlsbad, Calif.) directly from purified PBMCs and were >99% pure. CD4^+ T cells were sorted by FACS ARIA cell sorter (BD, San Jose, Calif.) into CD45RO^+ CD25^− memory T (TM) cells. TM cells were activated either by anti-CD3 and anti-CD28 (aCD3/aCD28) coated beads (1:4 beads:cells ratio) for 18-24 hours, or by Phorbol 12-myristate 13-acetate (PMA) and ionomycin for 4 hours and further FACS sorted based on CCR6 and IL-17 expression into CCR6^− IL-17^−, CCR6^+IL-17^+, or CCR6^+IL-17^− subsets (as determined by secretion assay labeling, see below). Sorted cells (>99% pure) were cultured in serum-free Xvivo-15 medium (Lonza, Wakersville, Md.) at 37° C. and 5% CO2 for 6-7 days prior to restimulation with PMA and ionomycin (see below). Culture conditions included: 10 U/mL recombinant human IL-2, (BD Biosciences, San Jose, Calif.), 20 ng/mL IL-7, 20 ng/mL IL-15, or 20 ng/mL IL-23 (all from R&D Systems, Minneapolis, Minn.). […] In the experiments using PI-3K signaling inhibitors, cells were treated with PI-3K specific inhibitor, LY294002 (EMD, Gibbstown, N.J.), or Akt specific inhibitor, AKTi-1/2 (EMD), for 2 days before PMA and Ionomycin restimulation.
Cells were stained as previously described (Oswald-Richter, et al., PLoS Pathogens 2007; 3: e58). For intracellular staining, T cell cultures were stimulated for 5 hours at 37° C. with PMA and Ionomycin and Golgistop (BD Biosciences). Stimulated cells were washed with PBS and stained with Fixable Viability Dye eFluor450 (eBioscience) to gate on live cells. Cells were then fixed and permeabilized by commercially available Foxp3 intracellular staining kit (eBioscience) or cytofix/cytoperm kit (BD Biosciences) as per manufacturer's protocol. Antibodies used for surface and intracellular staining included: CD45RO-FITC; CD25-PE; IFN-γ-FITC (clone 4S. B3), PE Cy7 or A700; IL-4-APC or PE; IL-17A (IL-17)-Pacific Blue (Clone BL168), FITC or Percp Cy5.5; IL-10-APC (Biolegend); IL-22-PE (R&D) or APC (eBioscience); IL-21-PE (clone 22URT1, eBioscience); FOXO1 rabbit monoclonal antibody; phospho-AKT (Ser473)-Alexa Fluor 488; Rabbit IgG isotype control-Alexa Fluor 488 (Cell Signaling, Danvers, Mass.); and CCR6-biotin (BD Biosciences). Secondary antibodies used were: Streptavidin-APC or PercpCy5.5 (BD Biosciences), Goat anti mouse-APC (BD Biosciences), anti rabbit-Alexa 647 (Molecular Probes). […]

[2] = test system: resting CCR6+CD45RO+CD25- TM cells; assay: Cytokine expression in resting CCR6+ TM cells cultured with cytokines, no TCR stimulation (intracellular staining)
Description: (§2) Peripheral Blood Mononuclear Cells (PBMCs) from healthy individuals (New York Blood Center, New York, N.Y.) were prepared using Ficoll-paque plus (GE Amersham, Uppsala, Sweden). Whole blood samples from rheumatoid arthritis patients were purchased from Bioreclamation (New York, N.Y.) and were processed similar to healthy donor blood. All healthy donor and patient samples were consented prior to purchase, were none-identifiable and approved by institutional human subjects board. CD4^+ T cells were isolated using Dynal CD4 Positive Isolation Kit (Invitrogen, Carlsbad, Calif.) directly from purified PBMCs and were >99% pure. CD4^+ T cells were sorted by FACS ARIA cell sorter (BD, San Jose, Calif.) into CD45RO^+ CD25^− memory T (TM) cells. TM cells were activated either by anti-CD3 and anti-CD28 (aCD3/aCD28) coated beads (1:4 beads:cells ratio) for 18-24 hours, or by Phorbol 12-myristate 13-acetate (PMA) and ionomycin for 4 hours and further FACS sorted based on CCR6 and IL-17 expression into CCR6^− IL-17^−, CCR6^+IL-17^+, or CCR6^+IL-17^− subsets (as determined by secretion assay labeling, see below). Sorted cells (>99% pure) were cultured in serum-free Xvivo-15 medium (Lonza, Wakersville, Md.) at 37° C. and 5% CO2 for 6-7 days prior to restimulation with PMA and ionomycin (see below). […] To determine the fold expansion, CCR6^+IL-17^+ or CCR6 IL-17^− subsets were labeled with CFSE (Molecular Probes, Eugene, Oreg.) or eFluor 670 (eBioscience, San Diego, Calif.), respectively, as previously described (Oswald-Richter, et al., PLoS Biol 2004; 2: E198). […] In the experiments using PI-3K signaling inhibitors, cells were treated with PI-3K specific inhibitor, LY294002 (EMD, Gibbstown, N.J.), or Akt specific inhibitor, AKTi-1/2 (EMD), for 2 days before PMA and Ionomycin restimulation.
Cells were stained as previously described (Oswald-Richter, et al., PLoS Pathogens 2007; 3: e58). For intracellular staining, T cell cultures were stimulated for 5 hours at 37° C. with PMA and Ionomycin and Golgistop (BD Biosciences). Stimulated cells were washed with PBS and stained with Fixable Viability Dye eFluor450 (eBioscience) to gate on live cells. Cells were then fixed and permeabilized by commercially available Foxp3 intracellular staining kit (eBioscience) or cytofix/cytoperm kit (BD Biosciences) as per manufacturer's protocol. Antibodies used for surface and intracellular staining included: CD45RO-FITC; CD25-PE; IFN-γ-FITC (clone 4S. B3), PE Cy7 or A700; IL-4-APC or PE; IL-17A (IL-17)-Pacific Blue (Clone BL168), FITC or Percp Cy5.5; IL-10-APC (Biolegend); IL-22-PE (R&D) or APC (eBioscience); IL-21-PE (clone 22URT1, eBioscience); FOXO1 rabbit monoclonal antibody; phospho-AKT (Ser473)-Alexa Fluor 488; Rabbit IgG isotype control-Alexa Fluor 488 (Cell Signaling, Danvers, Mass.); and CCR6-biotin (BD Biosciences). Secondary antibodies used were: Streptavidin-APC or PercpCy5.5 (BD Biosciences), Goat anti mouse-APC (BD Biosciences), anti rabbit-Alexa 647 (Molecular Probes). All data were acquired on LSRII instrument (BD Biosciences) using FACSDiva software. Data analyses were done using Flowjo software (Treestar Inc, Ashland, Oreg.). For phospho-Akt staining, Jurkat cells were fixed with BD Cytofix buffer (BD Biosciences) pre-warmed to 37° C. for 10 minutes. After spinning down, the cells were permeablilzed with ice-cold BD Phosflow Perm buffer III (BD Biosciences) on ice for 30 minutes and were stained with phospho-antibody.

CCR6+ TM cells [3] = assay: Cytokine gene expression by quantitative nuclease protection assay (qNPA); conditions: IL-7 stimulation
CCR6- TM cells [4] = assay: IL-17 induction by cytokine culture of sorted, activated CCR6-IL-17- memory T cells; conditions: cultured with the cytokine, restimulation
Description: (§3) Peripheral Blood Mononuclear Cells (PBMCs) from healthy individuals (New York Blood Center, New York, N.Y.) were prepared using Ficoll-paque plus (GE Amersham, Uppsala, Sweden). Whole blood samples from rheumatoid arthritis patients were purchased from Bioreclamation (New York, N.Y.) and were processed similar to healthy donor blood. All healthy donor and patient samples were consented prior to purchase, were none-identifiable and approved by institutional human subjects board. CD4^+ T cells were isolated using Dynal CD4 Positive Isolation Kit (Invitrogen, Carlsbad, Calif.) directly from purified PBMCs and were >99% pure. CD4^+ T cells were sorted by FACS ARIA cell sorter (BD, San Jose, Calif.) into CD45RO^+ CD25^− memory T (TM) cells. TM cells were activated either by anti-CD3 and anti-CD28 (aCD3/aCD28) coated beads (1:4 beads:cells ratio) for 18-24 hours, or by Phorbol 12-myristate 13-acetate (PMA) and ionomycin for 4 hours and further FACS sorted based on CCR6 and IL-17 expression into CCR6^− IL-17^−, CCR6^+IL-17^+, or CCR6^+IL-17^− subsets (as determined by secretion assay labeling, see below). Sorted cells (>99% pure) were cultured in serum-free Xvivo-15 medium (Lonza, Wakersville, Md.) at 37° C. and 5% CO2 for 6-7 days prior to restimulation with PMA and ionomycin (see below). […]

CCR6- TM cells [5] = assay: Cytokine expression in resting CCR6- TM cells cultured with IL-7; conditions: stimulated with IL-7
Description: as §3

CCR6+ IL-17- TM cells = assay: IL-17 induction by cytokine culture of sorted, activated CCR6+IL-17- memory T cells (intracellular staining, FACS); conditions: cultured with the cytokine for 6 days; IL-23 in the absence of IL-2
Description: as §2
Manufacturer's protocols (Miltenyi Biotec) for labeling human and mouse IL-17 secreting cells were followed. Briefly, activated T-cells were washed in cold buffer (PBS+0.5% BSA+2 mM EDTA) and labeled with IL-17 catch reagent for 5 minutes on ice. […]

[6] = one week in IL-7, then inhibitor for 48 hours

Molecule: O=c1[nH]c2ccccc2n1C1CCN(Cc2ccc(-c3nc4cc5nc[nH]c5cc4nc3-c3ccccc3)cc2)CC1 [AKTi-1/2]
- Klf2 message expression in aCD3/aCD28-activated CCR6+ TM cells expanded in IL-2 (Klf2; IL-2 medium 2 weeks, inhibitor for 2 days): upregulates
- Rorc and Foxp3 transcripts (Rorc and Foxp3): not affected
- cell viability (TM cells): without adversely affecting cell viability
- Akt phosphorylation (Ser473) in Jurkat cells (Akt phosphorylation; Jurkat T cells treated for 30 minutes): Inhibition of Akt phosphorylation
- cytokine-dependent phosphorylation of Akt (Akt phosphorylation; TM cells, 1-10 μg/mL): downregulated
- IL-17 and IL-22 production induced by IL-7 from CCR6+ TM cells (CCR6+ TM cells [1]; 5 μg/ml, Day 10): suppresses
- expression of IFNγ (CCR6+ TM cells [1]; [6]): not affected
- expression of IL-4 (CCR6+ TM cells [1]; [6]): less reduced
- γc-mediated IL-17/IL-22 induction (CCR6+ TM cells [1]; one week in IL-7, then inhibitor for 48 hours, dose-dependent): repressed

Molecule: O=c1cc(N2CCOCC2)oc2c(-c3ccccc3)cccc12 [LY294002]
- cell viability (TM cells): without adversely affecting cell viability

Molecule: IL-4: another γc-cytokine
- IL-17/IL-22 (Th17 cytokine) expression in resting CCR6+ TM cells ([2]; stimulation with the single cytokine): did not promote Th17 cytokine production

Molecule: IL-7: γc-cytokine (R&D Systems)
- Ccl20 expression (CCR6+ TM cells [3]): neither significantly induced
- expression of non-Th17 related cytokines (Il2, Ifng, Tnf) (CCR6+ TM cells [3]): not influenced
- Klf2 expression in resting CCR6+ TM cells (Klf2; stimulation with IL-7 alone): decreased
- expression of IL-21 ([2]; CCR6+ or CCR6- TM cells upon stimulation with IL-7): slightly reduced
- enhancement of IL-17 expression compared to the same cells ex vivo (day 0) ([2]; IL-7 for 10 days): more than 3 fold
- enhancement of IL-22 expression compared to the same cells ex vivo (day 0) ([2]; IL-7 for 10 days): more than 3 fold
- increase of double cytokine-producing cells (IL-22 or IFNγ co-expressed with IL-17) ([2]; IL-7 stimulation): more than 5 fold
- impact on IFNγ production ([2]; resting CCR6+ or CCR6- TM cells cultured with IL-7): almost no impact
- IL-17 expression in CCR6- TM cells (CCR6- TM cells [4]): neither IL-7 nor IL-15 induced IL-17 expression
- IL-17 or IL-22 expression in CCR6- TM cells (CCR6- TM cells [5]): failed to express IL-17 or IL-22
- de novo IL-17 expression in CCR6+ IL-17- T cells (CCR6+ IL-17- TM cells): induced similar levels of IL-17 expression

Molecule: IL-15: γc-cytokine (R&D Systems)
- IL-17 expression in CCR6- TM cells (CCR6- TM cells [4]): neither IL-7 nor IL-15 induced IL-17 expression
- de novo IL-17 expression in CCR6+ IL-17- T cells (CCR6+ IL-17- TM cells): induced similar levels of IL-17 expression

B1: IL-23: cytokine (R&D Systems) (protein, UniProt Q9NPF7 20-189; P29460 23-328, looked up)
Interleukin-23 subunit alpha: RAVPGGSSPAWTQCQQLSQKLCTLAWSAHPLVGHMDLREEGDEETTNDVPHIQCGDGCDPQGLRDNSQFCLQRIHQGLIFYEKLLGSDIFTGEPSLLPDSPVGQLHASLLGLSQLLQPEGHHWETQQIPSLSPSQPWQRLLLRFKILRSLQAFVAVAARVFAHGAATLSP
Interleukin-12 subunit beta: IWELKKDVYVVELDWYPDAPGEMVVLTCDTPEEDGITWTLDQSSEVLGSGKTLTIQVKEFGDAGQYTCHKGGEVLSHSLLLLHKKEDGIWSTDILKDQKEPKNKTFLRCEAKNYSGRFTCWWLTTISTDLTFSVKSSRGSSDPQGVTCGAATLSAERVRGDNKEYEYSVECQEDSACPAAEESLPIEVMVDAVHKLKYENYTSSFFIRDIIKPDPPKNLQLKPLKNSRQVEVSWEYPDTWSTPHSYFSLTFCVQVQGKSKREKKDRVFTDKTSATVICRKNASISVRAQDRYYSSSWSEWASVPCS
- synergy with IL-7 to further induce IL-17 or IL-22 expression ([2]; IL-7 (20 ng/ml)+IL-23 (20 ng/ml) for 10 days): did not significantly synergize
- de novo IL-17 expression in CCR6+ IL-17- T cells (CCR6+ IL-17- TM cells): did not influence IL-17 expression
